Laboratory results from patent US6914045B2, “Glycopeptide antibiotics” (Wyeth Holdings Corporation, priority 2001, dated 2005).
Values after ≈ are worked out from the molar mass of the structure shown.

What was measured:
Assay in all cases: in vitro antibacterial evaluation, MIC by broth dilution
Format in all cases: cell-based
[1] = system: Enterococcus sp.; settings: broth dilution, 18 hours at 35° C.; for MIC Enterococcus faecalis (ATCC 29212): strain ATCC 29212; for MIC Enterococcus faecalis (GC 2242): strain GC 2242; for MIC Enterococcus faecium (GC 2243): strain GC 2243; for MIC Enterococcus faecalis (GC 2691): strain GC 2691; for MIC Enterococcus faecalis (GC 3059): strain GC 3059; for MIC Enterococcus faecalis (GC 4552): strain GC 4552; for MIC Enterococcus faecalis (GC 4553): strain GC 4553; for MIC Enterococcus faecalis (GC 4554): strain GC 4554; for MIC Enterococcus faecium (GC 4556): strain GC 4556; for MIC Enterococcus faecium (GC 4557): strain GC 4557; for MIC Enterococcus avium (GC 4558): strain GC 4558; for MIC Enterococcus faecalis (GC 6189): strain GC 6189
Summary of the method: (§1)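 MIC, the lowest antibiotic concentration preventing growth, was read across 64-0.06 μg/mL with 5×10^5 CFU/mL inoculum. Method followed NCCLS M7-A2 broth dilution using Mueller-Hinton II; Gram-positive strains covered recent methicillin-, penicillin- and/or vancomycin-resistant clinical isolates.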

[2] = system: Streptococcus sp.; settings: broth dilution, 18 hours at 35° C.; for MIC Streptococcus pneumoniae (ATCC 6301): strain ATCC 6301; for MIC Streptococcus pneumoniae (GC 1894): strain GC 1894; for MIC Streptococcus pyogenes (GC 4563): strain GC 4563; for MIC Streptococcus agalactiae (GC 4564): strain GC 4564; for MIC Streptococcus pneumoniae (GC 4565): strain GC 4565
Summary of the method: as §1

[3] = system: Staphylococcus sp.; settings: broth dilution, 18 hours at 35° C.; for MIC Staphylococcus aureus (GC 1131): strain GC 1131
Summary of the method: as §1

[4] = system: Escherichia coli
Summary of the method: as §1

## CC(c1ccccc1)C1NC(=O)CNC(=O)C(CO)NC(=O)C(C(O)C2CNC(=N)N2C2OC(CO)C(O)C(O)C2O)NC(=O)C(C(O)C2CNC(=N)N2)NC(=O)C(Cc2ccc(OC3OC(CO)C(OC4OC5COC(c6ccc(-c7ccsc7)cc6)OC5C(O)C4O)C(O)C3O)cc2)NC1=O (stereo not drawn) [Example 164]
[1]; inoculum 5×10^5 CFU/mL
  MIC Enterococcus faecalis (ATCC 29212): 8 µg/mL (≈ 5.46 µM)
  MIC Enterococcus faecalis (GC 2242): 4 µg/mL (≈ 2.73 µM)
  MIC Enterococcus faecium (GC 2243): 8 µg/mL (≈ 5.46 µM)
  MIC Enterococcus faecalis (GC 2691): 8 µg/mL (≈ 5.46 µM)
  MIC Enterococcus faecalis (GC 3059): 8 µg/mL (≈ 5.46 µM)
  MIC Enterococcus faecalis (GC 4552): 8 µg/mL (≈ 5.46 µM)
  MIC Enterococcus faecalis (GC 4553): 8 µg/mL (≈ 5.46 µM)
  MIC Enterococcus faecalis (GC 4554): 16 µg/mL (≈ 10.9 µM)
  MIC Enterococcus faecium (GC 4556): 8 µg/mL (≈ 5.46 µM)
  MIC Enterococcus faecium (GC 4557): 4 µg/mL (≈ 2.73 µM)
  MIC Enterococcus avium (GC 4558): 8 µg/mL (≈ 5.46 µM)
  MIC Enterococcus faecalis (GC 6189): 4 µg/mL (≈ 2.73 µM)
[1]
  MIC Enterococcus faecalis (ATCC 29212): 8 µg/mL (≈ 5.46 µM)
  MIC Enterococcus faecalis (GC 2242): 4 µg/mL (≈ 2.73 µM)
  MIC Enterococcus faecium (GC 2243): 8 µg/mL (≈ 5.46 µM)
  MIC Enterococcus faecalis (GC 2691): 8 µg/mL (≈ 5.46 µM)
  MIC Enterococcus faecalis (GC 3059): 8 µg/mL (≈ 5.46 µM)
  MIC Enterococcus faecalis (GC 4552): 8 µg/mL (≈ 5.46 µM)
  MIC Enterococcus faecalis (GC 4553): 8 µg/mL (≈ 5.46 µM)
  MIC Enterococcus faecalis (GC 4554): 16 µg/mL (≈ 10.9 µM)
  MIC Enterococcus faecium (GC 4556): 8 µg/mL (≈ 5.46 µM)
  MIC Enterococcus faecium (GC 4557): 4 µg/mL (≈ 2.73 µM)
  MIC Enterococcus avium (GC 4558): 8 µg/mL (≈ 5.46 µM)
  MIC Enterococcus faecalis (GC 6189): 4 µg/mL (≈ 2.73 µM)
[2]; inoculum 5×10^5 CFU/mL
  MIC Streptococcus pneumoniae (ATCC 6301): <0.06 µg/mL
  MIC Streptococcus pneumoniae (GC 1894): <0.06 µg/mL
  MIC Streptococcus pyogenes (GC 4563): 0.12 µg/mL (≈ 0.0819 µM)
  MIC Streptococcus agalactiae (GC 4564): 0.12 µg/mL (≈ 0.0819 µM)
  MIC Streptococcus pneumoniae (GC 4565): <0.06 µg/mL
[2]
  MIC Streptococcus pneumoniae (ATCC 6301): <0.06 µg/mL
  MIC Streptococcus pneumoniae (GC 1894): <0.06 µg/mL
  MIC Streptococcus pyogenes (GC 4563): 0.12 µg/mL (≈ 0.0819 µM)
  MIC Streptococcus agalactiae (GC 4564): 0.12 µg/mL (≈ 0.0819 µM)
  MIC Streptococcus pneumoniae (GC 4565): <0.06 µg/mL
[3]; inoculum 5×10^5 CFU/mL
  MIC Staphylococcus aureus (GC 1131): 4 µg/mL (≈ 2.73 µM)
[3]; strain ATCC 29213
  MIC Staphylococcus aureus (ATCC 29213): 8 µg/mL (≈ 5.46 µM)
[3]
  MIC Staphylococcus aureus (GC 1131): 4 µg/mL (≈ 2.73 µM)
[3]; strain GC 3051
  MIC Staphylococcus aureus (GC 3051): 16 µg/mL (≈ 10.9 µM)
[3]; strain GC 3053
  MIC Staphylococcus aureus (GC 3053): 8 µg/mL (≈ 5.46 µM)
[3]; strain GC 4541
  MIC Staphylococcus aureus (GC 4541): 8 µg/mL (≈ 5.46 µM)
[3]; strain GC 4542
  MIC Staphylococcus aureus (GC 4542): 16 µg/mL (≈ 10.9 µM)
[3]; strain GC 4543
  MIC Staphylococcus aureus-SMITH (GC 4543): 4 µg/mL (≈ 2.73 µM)
[3]; strain GC 4544
  MIC Staphylococcus aureus (GC 4544): 8 µg/mL (≈ 5.46 µM)
[3]; strain GC 4545
  MIC Staphylococcus aureus (GC 4545): 4 µg/mL (≈ 2.73 µM)
[3]; strain GC 4546
  MIC Staphylococcus haemolyticus (GC 4546): 4 µg/mL (≈ 2.73 µM)
[3]; strain GC 4547
  MIC Coagulase Negative Staphylococcus (GC 4547): 4 µg/mL (≈ 2.73 µM)
[3]; strain GC 4548
  MIC Coagulase Negative Staphylococcus (GC 4548): 1 µg/mL (≈ 0.682 µM)
[3]; strain GC 4549
  MIC Coagulase Negative Staphylococcus (GC 4549): 0.5 µg/mL (≈ 0.341 µM)
[3]; strain GC 4551
  MIC Coagulase Negative Staphylococcus (GC 4551): 4 µg/mL (≈ 2.73 µM)
[3]; strain GC 6257
  MIC Coagulase Negative Staphylococcus (GC 6257): 1 µg/mL (≈ 0.682 µM)
[3]; strain SMITH GC 4543
  MIC Staphylococcus aureus-SMITH (GC 4543): 4 µg/mL (≈ 2.73 µM)
[4]; strain ATCC 25922, 18 hours at 35° C.
  MIC Escherichia coli (ATCC 25922): >64 µg/mL
[4]; strain GC 4559, 18 hours at 35° C.
  MIC Escherichia coli (GC 4559): 64 µg/mL (≈ 43.7 µM)
[4]; strain GC 4560, 18 hours at 35° C.
  MIC Escherichia coli (GC 4560): 4 µg/mL (≈ 2.73 µM)
